Test results as given in the supplement of paper PMC10307832.

How the values were obtained:
Experiment in all cases: relative viability (nuclei count vs DMSO), 5 days (fraction); higher = more cells survive
[1] = compound: C1CC(C2=C(C1)C3=C(N2)C=CC(=C3)Cl)C(=O)N [Selisistat] + Nc1nc2[nH]cc(CCc3ccc(C(=O)N[C@@H](CCC(=O)O)C(=O)O)cc3)c2c(=O)[nH]1 [Pemetrexed] (partner 0.2 µM)
How it was run: (§1)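 Relative viability is defined as nuclei in treated wells over nuclei in vehicle wells. Duplicate plates were run and medians reported. Lung cancer cell lines in 1536-well plates were dosed by pin tool one day after seeding, with one drug or with a fixed anchor-drug dose plus five library-drug doses (not always all listed) in √10 steps, and nuclei were counted after 5 days.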

[2] = compound: c1ccc2c(CCNc3ccc(Nc4ccncc4)cc3)c[nH]c2c1 [Serdemetan] + COc1cccc2cc(-c3nc([C@H]4CC[C@H](C(=O)O)CC4)n4ncnc(N)c34)[nH]c12 [OSI-027] (partner 0.5 µM)
How it was run: as §1

[3] = compound: c1ccc2c(CCNc3ccc(Nc4ccncc4)cc3)c[nH]c2c1 [Serdemetan] + O=C(c1cc(Cc2n[nH]c(=O)c3ccccc23)ccc1F)N1CCN(C(=O)C2CC2)CC1 [Olaparib] (partner 8 µM)
How it was run: as §1

[4] = compound: c1ccc2c(CCNc3ccc(Nc4ccncc4)cc3)c[nH]c2c1 [Serdemetan] + Nc1ncn([C@H]2C[C@H](O)[C@@H](CO)O2)c(=O)n1 [Decitabine] (partner 2 µM)
How it was run: as §1

Row | Cell Line | relative viability ([1]; first compound 0.4 µM) | relative viability ([1]; first compound 1.265 µM) | relative viability ([1]; first compound 4 µM) | relative viability ([1]; first compound 12.65 µM) | relative viability ([1]; first compound 40 µM) | relative viability ([2]; first compound 0.04 µM) | relative viability ([2]; first compound 0.1265 µM) | relative viability ([2]; first compound 0.4 µM) | relative viability ([2]; first compound 1.265 µM) | relative viability ([2]; first compound 4 µM) | relative viability ([3]; first compound 0.04 µM) | relative viability ([3]; first compound 0.1265 µM) | relative viability ([3]; first compound 0.4 µM) | relative viability ([3]; first compound 1.265 µM) | relative viability ([3]; first compound 4 µM) | relative viability ([4]; first compound 0.04 µM) | relative viability ([4]; first compound 0.1265 µM) | relative viability ([4]; first compound 0.4 µM) | relative viability ([4]; first compound 1.265 µM) | relative viability ([4]; first compound 4 µM)
1 | COR-L23 | 0.182 | 0.212 | 0.193 | 0.19 | 0.2 | 0.796 | 0.712 | 0.799 | 0.658 | 0.744 | 0.316 | 0.324 | 0.386 | 0.313 | 0.289 | 0.4 | 0.443 | 0.435 | 0.39 | 0.353
2 | ABC-1 | – | – | – | – | – | 0.459 | 0.488 | 0.486 | 0.296 | 0.265 | 0.627 | 0.689 | 0.982 | 0.702 | 0.573 | 0.896 | 1.01 | 1.25 | 0.921 | 0.844
3 | SW 900 | 0.468 | 0.464 | 0.461 | 0.517 | 0.46 | 0.757 | 0.602 | 0.632 | 0.381 | 0.37 | 1.03 | 0.892 | 0.861 | 0.691 | 0.459 | 0.398 | 0.473 | 0.433 | 0.331 | 0.284
4 | NCI-H838 | 0.243 | 0.243 | 0.222 | 0.228 | 0.226 | 0.434 | 0.416 | 0.461 | 0.387 | 0.463 | 0.739 | 0.759 | 0.671 | 0.669 | 0.874 | 0.437 | 0.459 | 0.404 | 0.386 | 0.451
5 | NCI-H1648 | 0.562 | 0.584 | – | 0.599 | 0.743 | – | 0.255 | 0.335 | 0.195 | 0.256 | – | 0.744 | 0.633 | 0.399 | 0.425 | – | 0.533 | 0.424 | 0.3 | 0.302
6 | A549 | – | – | – | – | – | – | – | – | – | – | 0.208 | 0.382 | 0.269 | 0.141 | 0.147 | 0.263 | 0.245 | 0.261 | 0.291 | 0.198
7 | A-427 | 0.996 | 1.04 | – | 1.07 | 0.988 | 0.526 | 0.509 | 0.539 | 0.455 | 0.36 | 0.693 | 0.639 | 0.711 | 0.66 | 0.643 | 0.555 | 0.56 | 0.606 | 0.513 | 0.45
8 | NCI-H1792 | 0.696 | 0.633 | – | 0.913 | 0.755 | 0.752 | 0.718 | 0.677 | 0.42 | 0.426 | 0.405 | 0.336 | 0.231 | 0.0956 | 0.116 | 0.429 | 0.459 | 0.417 | 0.327 | 0.176
9 | LCLC-97TM1 | 0.153 | 0.177 | – | 0.155 | 0.206 | 0.371 | 0.553 | 0.412 | – | 0.528 | 0.349 | 0.358 | 0.403 | 0.174 | 0.237 | 0.232 | 0.213 | 0.239 | 0.175 | 0.165
10 | NCI-H1703 | – | – | – | – | – | – | – | – | – | – | 0.427 | 0.397 | 0.415 | 0.386 | 0.333 | – | – | – | – | –
11 | LCLC-103H | 0.42 | 0.473 | 0.469 | 0.509 | 0.529 | 0.431 | 0.551 | 0.479 | 0.537 | 0.406 | 0.742 | 0.727 | 0.661 | 0.593 | 0.728 | 0.73 | 0.663 | 0.426 | 0.587 | 0.687
12 | PC-3 [JPC-3] | 1.14 | 1.15 | – | 0.951 | 1.02 | 0.83 | 0.741 | 0.58 | 0.749 | 0.831 | 1.11 | 1.08 | 0.969 | 1.09 | 1.18 | 0.901 | 0.844 | 0.854 | 0.847 | 0.742
13 | BEN | 0.876 | 0.614 | 0.532 | 0.698 | 0.68 | 0.307 | 0.292 | 0.272 | – | 0.286 | 0.975 | 0.98 | 1.15 | 0.81 | 0.594 | 0.649 | 0.612 | 0.726 | 0.631 | 0.647
14 | NCI-H1666 | 0.948 | 0.803 | 0.871 | 0.822 | 0.853 | 0.898 | 0.887 | 0.847 | 0.667 | 0.771 | 0.735 | 0.701 | 0.668 | – | 0.678 | 0.798 | 0.657 | 0.652 | 0.645 | 0.697
15 | LC-2-ad | 0.263 | 0.268 | 0.268 | 0.285 | 0.261 | 0.716 | 0.85 | 0.877 | 0.659 | 0.763 | 0.703 | 0.629 | 0.63 | 0.536 | 0.511 | 0.795 | 0.727 | 0.679 | 0.714 | 0.634
16 | Calu-6 | – | – | – | – | – | – | – | – | – | – | 0.561 | 0.612 | 0.555 | 0.412 | 0.362 | – | – | – | – | –
17 | EBC-1 | – | – | – | – | – | – | – | – | – | – | 0.694 | 0.669 | 0.703 | 0.594 | 0.547 | – | – | – | – | –
18 | NCI-H1299 | – | – | – | – | – | – | – | – | – | – | 0.953 | 0.91 | 0.869 | 0.787 | 0.57 | – | – | – | – | –
19 | NCI-H2228 | 0.32 | 0.308 | 0.344 | 0.325 | 0.408 | 0.526 | 0.523 | 0.464 | 0.17 | 0.221 | 0.493 | 0.458 | 0.358 | 0.301 | 0.264 | – | – | – | – | –
20 | IA-LM | – | – | – | – | – | – | – | – | – | – | 0.883 | 0.886 | 0.839 | 0.392 | 0.396 | – | – | – | – | –
21 | NCI-H727 | – | – | – | – | – | 0.69 | 0.681 | 0.567 | 0.466 | 0.499 | 0.598 | 0.725 | 0.679 | 0.484 | 0.726 | 0.849 | 0.797 | 0.828 | 0.965 | 0.826
22 | CAL-12T | 1.29 | 1.25 | 1.3 | 1.12 | 1.23 | 0.827 | 0.638 | 0.653 | 0.579 | 0.518 | 0.777 | 0.713 | 0.576 | 0.742 | 0.67 | – | – | – | – | –
